Laboratory results taken from patent publication US9017936B2, “Assays for agents affecting megakaryocyte development” (Shire Human Genetic Therapies, Inc., priority 2009, dated 2015).

Columns and labels:
[1] = tested on: phosphodiesterase type III; conditions: cited from earlier work
TRB-3 mRNA expression = assay: TRB-3 expression assay (quantitative RT-PCR) in megakaryocyte cultures of expanded CD34+ cells; type: cell-based, human
Method: CD34+ cells were thawed, washed by centrifugation (300 g for 10 min at room temperature) in Stemspan™ medium (Stem Cell Technologies, London, UK) and then seeded in 48-well Falcon plates at a density of 1.5×10^5 cells/ml in the above culture medium supplemented with 100 U/ml penincillin, 0.1 mg/ml streptomycin, 0.25 μg/ml amphothericin B, 2% human umbilical cord blood plasma, 40 ng/ml TPO (Insight, UK), 50 ng/ml SCF, 100 ng/ml Flt3 ligand, and 10 ng/ml IL-3 (all from R&D Systems, Abingdon, UK). Cells were grown four days at 37° C. in a humidified incubator under 5% CO2/95% air.
The expanded cells were washed free of cytokines by centrifugation as above and re-suspended to 1.5×10^5 cells/ml by addition of fresh Stemspan™ culture medium containing 2% human umbilical cord plasma and 40 ng/ml TPO. Cells were then grown in 48-well Falcon plates at 37° C. in a humidified incubator under 5% CO2/95% air in the presence of either anagrelide, another test agent or an equivalent amount of vehicle (between 0.01% to 0.05% DMSO). At various time points the cells were harvested and processed for RNA extraction or for determination of CD61 antigen expression and total cell counting.
Cellular RNA was extracted with RNeasy reagent (Qiagen) according to the manufacturer's instructions and cDNA was prepared from 0.1-0.5 μg total RNA template using random hexamer primers and a High Capacity Reverse Transcription kit or a High Capacity RNA-to-cDNA Master Mix (Applied Biosystems). cDNA aliquots were either used immediately or stored at −20° C. for PCR analysis at a later stage. cDNA aliquots (equivalent to 5-10 ng of input RNA) were then analysed in duplicates by real-time PCR using gene-specific TaqMan probes on an ABI Prism 7500 Sequence Detection System (Applied Biosystems). Probes for TRB-3 (Hs00221754_m1), GpIIb (Hs00166246_m1), GUSB (Hs99999908_m1) and TBP (Hs99999910_m1) were commercially available from the Assay on Demand gene expression collection (Applied Biosystems). Thermal conditions were the following: 20 seconds at 95° C. followed by 40 cycles of 3 seconds at 94° C. and 30 seconds at 60° C. Reactions without cDNA were included as controls. Relative mRNA expression levels were calculated using the comparative cycle threshold (CT) method (Livak and Schmittgen, 2001) using the CT values obtained for β-glucuronidase (GUSB) or TATA Box binding protein (TBP) as internal references. For each target gene to be quantified, validation experiments were performed to determine that the efficiency of amplification of target and reference gene was approximately equal. When analysing dose responses EC50 values were calculated with Prism software (Version 4, GraphPad Software Inc, CA, USA).
In order to ascertain the sensitivity of the described method, dose-response curves were constructed based on the effect of anagrelide on TRB-3 mRNA expression using different numbers of cells. Cells were cultured for 4 days under standard MK culture conditions in the presence of increasing concentrations of anagrelide. RNA was extracted from the cells, and TRB-3 mRNA expression was determined by quantitative RT-PCR using β-glucuronidase as an endogenous reference. Results shown in FIG. 3 were expressed relative to the TRB-3 mRNA level detected in cells treated with vehicle alone. EC50 values were calculated using a sigmoidal dose response (variable slope) curve-fit model. Values in brackets represent the 95% CI. Error bars (SD) smaller than the size of the symbol are not shown.
Expanded CD34+ cells (see Materials and Methods Section of Example 1) were pre-incubated for various lengths of time under standard megakaryocyte culture conditions in the absence of the test agent and then treated with the test agent or an equivalent amount of vehicle for 24 hours prior to harvesting. TRB-3 mRNA expression was determined as described in the Materials and Methods Section of Example 1.

[2] = tested on: megakaryocytic cells from primary hematopoietic progenitor cells; assay: Megakaryocyte growth in expanded CD34+ cells transduced with shControl or shTRB3; type: cell-based, human; conditions: for MK cell number: cultured one week with anagrelide; for Inhibition of megakaryocyte growth: vs DMSO
From the text: UT7/mpl cells (clone 5.1) (Goncalves et al., Leukemia 12:1355-1366 (1998)) or human umbilical cord blood CD34+ hematopoietic cells were infected with pLKO.1-puro lentiviral vectors carrying short hairpin (sh) RNA sequences against human TRB-3 (designated shTRB3.1 to shTRB3.5) or a non-targeting scramble shRNA (designated shControl). shRNA clones were purchased from Sigma.
Expanded CD34+ cells (see Materials and Methods Section of Example 1) were infected as described above and then were sub-cultured under standard megakaryocyte culture conditions with anagrelide or an equivalent amount of vehicle for 2 days prior to addition of 1 μg/ml puromycin and further differentiation for 5 days.
CD61 expression of live cells was analysed by flow cytometry following double staining with 7-amino actinomycin D and the FITC-conjugated monoclonal antibody Y2/51 (Dako cytomation) or an isotype-matched control antibody; the latter was used to set a boundary between positive and negative cells.
Table 1 illustrates the effect of TRB-3 silencing on the ability of anagrelide-to inhibit megakaryocyte growth in cultures of primary hematopoietic progenitor cells. Expanded CD34+ cells were infected overnight with shControl or with a mixture of shTRB3.4 and shTRB3.5. Cells were then cultured for one week in the presence of anagrelide or an equivalent amount of vehicle under standard megakaryocyte culture conditions, except that 1 ug/ml puromycin was added after 2 days. The number of megakaryocytic cells was determined by cell counting of viable cells and flow cytometry.

[3] = shTRB3 (shTRB3.4 + shTRB3.5)-transduced cells

For `O=C1CN2Cc3c(ccc(Cl)c3Cl)N=C2N1` [Anagrelide, 6,7-dichloro-1,5-dihydroimidazo (2,1-b)quinazolin-2(3H)-one], the “inhibition of phosphodiesterase type III” value [1] is listed as “potent inhibitor”, the “TRB-3 mRNA response to 24 h exposure” value (TRB-3 mRNA expression; 1 μM, 24 h exposure following the refractory phase (after initial 2-3 days)) is listed as “sharp increase in TRB-3 expression” and the “TRB-3 mRNA response to 24 h exposure” value (TRB-3 mRNA expression; 1 μM, exposure confined to the initial 2-3 days of culture) is listed as “relatively weak”. For the same molecule, the “TRB-3 expression, 24 h treatment after three days of culture vs continuous four day exposure” value (TRB-3 mRNA expression; 1 μM, last 24 h vs continuous) was “higher level of TRB-3 expression than if the drug was present for the entire four day period of culture”, the “extent of TRB-3 expression response (fold increase vs vehicle)” value (TRB-3 mRNA expression; 4 days, RNA extracted from 25,000 cells) was 1.8 fold and the “extent of TRB-3 expression response (fold increase vs vehicle)” value (TRB-3 mRNA expression; 4 days, RNA extracted from 200,000 cells) was 3 fold. The EC50 (TRB-3 mRNA expression; Homo sapiens, 96 h, 4 days, standard MK culture, RNA extracted from 200,000 cells, 95% CI 9 to 27 nM, read-out: EC50 for increase in TRB-3 mRNA expression) was 15 nM, the MK cell number ([2]; shControl-transduced cells) was 106 ×10^3 and the “Inhibition of megakaryocyte growth” value ([2]; shControl-transduced cells) was 49.3%. For the same molecule, the MK cell number [2, 3] was 202 ×10^3 and the “Inhibition of megakaryocyte growth” value [2, 3] was 21.5%.
For “TPO: thrombopoietin, the primary signal for megakaryocyte production”, the “effect on TRB-3 expression” value (TRB-3 mRNA expression) was “reduces TRB-3 expression”.
